Data reported in PubChem BioAssay AID248 (DTP/NCI, 2004).
Values joined by “and” are separate entries in the source; they are usually repeats but may differ in a detail not shown here. Equal values may be shown once. Toxic doses and inconclusive results are not listed. Cut-off read from the data, not from the text of the source: active = T/C of 150% or more; inactive = T/C below 125%.

Tested on: L1210 leukemia ip in BDF1 mice, survival T/C
Test: NCI In Vivo Anticancer Drug Screen. Data for tumor model L1210 Leukemia (intraperitoneal) in B6D2F1 (BDF1) mice
Conditions: endpoint: mean survival time, higher = longer survival
Outline: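 Read-out is survival time, reported as the treated-group measurement over the vehicle-control measurement.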

[1] = dose: 100.0 mg/kg/injection, schedule: Q01DX009 (ip), vehicle: Klucel (hydroxypropylcellulose) (HPC)
[2] = dose: 100.0 mg/kg/injection, schedule: Q04DX003 (ip), vehicle: Klucel (hydroxypropylcellulose) (HPC)
[3] = dose: 200.0 mg/kg/injection, schedule: Q01DX009 (ip), vehicle: Klucel (hydroxypropylcellulose) (HPC)
[4] = dose: 200.0 mg/kg/injection, schedule: Q04DX003 (ip), vehicle: Klucel (hydroxypropylcellulose) (HPC)
[5] = dose: 400.0 mg/kg/injection, schedule: Q04DX003 (ip), vehicle: Klucel (hydroxypropylcellulose) (HPC)
[6] = dose: 100.0 mg/kg/injection, schedule: Q01DX001 (ip), vehicle: saline
[7] = dose: 200.0 mg/kg/injection, schedule: Q01DX001 (ip), vehicle: saline
[8] = dose: 400.0 mg/kg/injection, schedule: Q01DX001 (ip), vehicle: saline
[9] = dose: 100.0 mg/kg/injection, schedule: Q01DX009 (ip), vehicle: saline with Tween-80
[10] = dose: 1.0 mg/kg/injection, schedule: Q01DX Z (ip), vehicle: carboxymethylcellulose (CMC)
[11] = dose: 2.0 mg/kg/injection, schedule: Q01DX Z (ip), vehicle: carboxymethylcellulose (CMC)
[12] = dose: 16.0 mg/kg/injection, schedule: Q01DX Z (ip), vehicle: carboxymethylcellulose (CMC)
[13] = dose: 100.0 mg/kg/injection, schedule: Q04DX003 (ip), vehicle: saline with Tween-80
[14] = dose: 400.0 mg/kg/injection, schedule: Q01DX009 (ip), vehicle: Klucel (hydroxypropylcellulose) (HPC)

Measured: T/C

CN1C(=O)CN=C(c2ccc[nH]2)c2cc(Cl)ccc21 (tested in a mixture with another compound)
inactive: [1] 96 % of control | [2] 103 % of control | [3] 91 % of control | [4] 102 % of control | [5] 105 % of control

O=NN1CCCCCCC1C(=O)O (stereo not given)
inactive: [6] 102 % of control | [7] 98 % of control | [8] 102 % of control

COC(=O)CCCN1C(=O)c2ccccc2C1=O
inactive: dose: 100.0 mg/kg/injection, schedule: Q04DX002 (ip), vehicle: carboxymethylcellulose (CMC) 102 % of control and 87 % of control | dose: 100.0 mg/kg/injection, schedule: Q04DX003 (ip), vehicle: carboxymethylcellulose (CMC) 94 % of control | dose: 200.0 mg/kg/injection, schedule: Q04DX002 (ip), vehicle: carboxymethylcellulose (CMC) 97 % of control and 91 % of control | dose: 200.0 mg/kg/injection, schedule: Q04DX003 (ip), vehicle: carboxymethylcellulose (CMC) 92 % of control | dose: 400.0 mg/kg/injection, schedule: Q04DX002 (ip), vehicle: carboxymethylcellulose (CMC) 93 % of control and 90 % of control | dose: 400.0 mg/kg/injection, schedule: Q04DX003 (ip), vehicle: carboxymethylcellulose (CMC) 99 % of control

CCCCCCCCC(C(=O)c1ccccc1)C(O)(C(F)(F)F)C(F)(F)F (stereo not given)
inactive: [9] 100 % of control | dose: 200.0 mg/kg/injection, schedule: Q01DX009 (ip), vehicle: saline with Tween-80 106 % of control

Cc1c2c(cc3c1sc1ccccc13)CCCC2=O
inactive: [6] 101 % of control | [7] 94 % of control | [8] 101 % of control

Cc1cccc2nc3nc(Cl)c(Cl)nc3n12
inactive: dose: 75.0 mg/kg/injection, schedule: Q01DX001 (ip), vehicle: acetone 98 % of control | dose: 150.0 mg/kg/injection, schedule: Q01DX001 (ip), vehicle: acetone 101 % of control | dose: 300.0 mg/kg/injection, schedule: Q01DX001 (ip), vehicle: acetone 92 % of control

O=C(Nc1cccc(C2=NCCN2)c1)Nc1ccc(NC(=O)Nc2cccc(C3=NCCN3)c2)c(Cl)c1
active: [12] 207 % of control | dose: 16.0 mg/kg/injection, schedule: Q01DX Z (ip), vehicle: water 218 % of control | dose: 31.0 mg/kg/injection, schedule: Q01DX Z (ip), vehicle: water 286 % of control | dose: 62.0 mg/kg/injection, schedule: Q01DX Z (ip), vehicle: water 173 % of control
inactive: dose: 0.25 mg/kg/injection, schedule: Q01DX Z (ip), vehicle: carboxymethylcellulose (CMC) 100 % of control | dose: 0.5 mg/kg/injection, schedule: Q01DX Z (ip), vehicle: carboxymethylcellulose (CMC) 105 % of control | [10] 104 % of control | [11] 110 % of control | dose: 62.0 mg/kg/injection, schedule: Q01DX Z (oral), vehicle: carboxymethylcellulose (CMC) 105 % of control | dose: 125.0 mg/kg/injection, schedule: Q01DX Z (oral), vehicle: carboxymethylcellulose (CMC) 94 % of control | dose: 250.0 mg/kg/injection, schedule: Q01DX Z (oral), vehicle: carboxymethylcellulose (CMC) 97 % of control | dose: 500.0 mg/kg/injection, schedule: Q01DX Z (oral), vehicle: carboxymethylcellulose (CMC) 97 % of control

Cc1[nH]ccc2c(C)c3nc4ccccc4c3cc12
inactive: dose: 2.5 mg/kg/injection, schedule: Q01DX Z (ip), vehicle: carboxymethylcellulose (CMC) 110 % of control | dose: 5.0 mg/kg/injection, schedule: Q01DX Z (ip), vehicle: carboxymethylcellulose (CMC) 114 % of control | dose: 29.0 mg/kg/injection, schedule: Q04DX003 (ip), vehicle: saline with Tween-80 122 % of control | dose: 50.0 mg/kg/injection, schedule: Q01DX001 (ip), vehicle: saline 98 % of control | dose: 75.0 mg/kg/injection, schedule: Q01DX Z (ip), vehicle: saline 110 % of control | [6] 112 % of control | dose: 100.0 mg/kg/injection, schedule: Q01DX Z (ip), vehicle: saline 92 % of control | [7] 110 % of control | [8] 122 % of control
active: dose: 40.0 mg/kg/injection, schedule: Q01DX Z (ip), vehicle: saline 151 % of control | [13] 165 % of control | dose: 150.0 mg/kg/injection, schedule: Q04DX003 (ip), vehicle: saline with Tween-80 153 % of control

O=C(Nc1ccc(C2=NCCN2)cc1)Nc1cccc(C(=O)Nc2ccc(C3=NCCN3)cc2)c1
inactive: [10] 106 % of control | [11] 117 % of control | dose: 3.75 mg/kg/injection, schedule: Q01DX Z (ip), vehicle: saline 97 % of control | dose: 4.0 mg/kg/injection, schedule: Q01DX Z (ip), vehicle: carboxymethylcellulose (CMC) 122 % of control | dose: 7.5 mg/kg/injection, schedule: Q01DX Z (ip), vehicle: saline 100 % of control | dose: 15.0 mg/kg/injection, schedule: Q01DX Z (ip), vehicle: saline 110 % of control | dose: 120.0 mg/kg/injection, schedule: Q01DX Z (oral), vehicle: saline 101 % of control | dose: 240.0 mg/kg/injection, schedule: Q01DX Z (oral), vehicle: saline 101 % of control | dose: 480.0 mg/kg/injection, schedule: Q01DX Z (oral), vehicle: saline 104 % of control
active: dose: 8.0 mg/kg/injection, schedule: Q01DX Z (ip), vehicle: carboxymethylcellulose (CMC) 150 % of control and 158 % of control | [12] 225 % of control | dose: 30.0 mg/kg/injection, schedule: Q01DX Z (ip), vehicle: carboxymethylcellulose (CMC) 154 % of control | dose: 31.0 mg/kg/injection, schedule: Q01DX Z (ip), vehicle: carboxymethylcellulose (CMC) 250 % of control | dose: 62.0 mg/kg/injection, schedule: Q01DX Z (ip), vehicle: carboxymethylcellulose (CMC) 207 % of control and 320 % of control | dose: 120.0 mg/kg/injection, schedule: Q01DX Z (ip), vehicle: carboxymethylcellulose (CMC) 198 % of control | dose: 125.0 mg/kg/injection, schedule: Q01DX Z (ip), vehicle: carboxymethylcellulose (CMC) 200 % of control | dose: 240.0 mg/kg/injection, schedule: Q01DX Z (ip), vehicle: saline 233 % of control

OCc1cc(Cl)cc(Cl)c1O
inactive: [9] 97 % of control | [13] 97 % of control | dose: 200.0 mg/kg/injection, schedule: Q04DX003 (ip), vehicle: saline with Tween-80 98 % of control | dose: 400.0 mg/kg/injection, schedule: Q04DX003 (ip), vehicle: saline with Tween-80 101 % of control

CC(=O)OCC1CC2C=CC1C2 (stereo not given)
inactive: dose: 222.0 mg/kg/injection, schedule: Q01DX Z (ip), vehicle: saline 98 % of control | dose: 333.0 mg/kg/injection, schedule: Q01DX Z (ip), vehicle: saline 102 % of control | dose: 500.0 mg/kg/injection, schedule: Q01DX Z (ip), vehicle: saline 104 % of control

CN(Cc1cnc2nc(N)nc(N)c2n1)c1ccc(C(=O)NC(CCC(=O)O)C(=O)O)c(Cl)c1Cl (stereo not given)
active: dose: 12.5 mg/kg/injection, schedule: Q01DX009 (ip), vehicle: sodium bicarbonate 157 % of control | dose: 25.0 mg/kg/injection, schedule: Q01DX009 (ip), vehicle: sodium bicarbonate 157 % of control | dose: 50.0 mg/kg/injection, schedule: Q01DX009 (ip), vehicle: sodium bicarbonate 155 % of control

N=C(Oc1c(Cl)c(Cl)c(Cl)c(Cl)c1Cl)Oc1c(Cl)c(Cl)c(Cl)c(Cl)c1Cl
inactive: [1] 100 % of control | [3] 111 % of control | [14] 102 % of control

c1ccc(C2OCCOC2c2ccccc2)cc1 (stereo not given)
inactive: dose: 100.0 mg/kg/injection, schedule: Q01DX001 (ip), vehicle: carboxymethylcellulose (CMC) 101 % of control | dose: 200.0 mg/kg/injection, schedule: Q01DX001 (ip), vehicle: carboxymethylcellulose (CMC) 103 % of control | dose: 400.0 mg/kg/injection, schedule: Q01DX001 (ip), vehicle: carboxymethylcellulose (CMC) 101 % of control

O=C(O)CN1C(=O)CN=C(c2ccccn2)c2cc(Cl)ccc21
inactive: [1] 99 % of control | [2] 100 % of control | [3] 100 % of control | [4] 100 % of control | [14] 97 % of control | [5] 97 % of control
